Columns and labels:
P2Y purinoceptor 14 = target: T1, P2Y purinoceptor 14 (Homo sapiens, UniProt Q15391); assay: Antagonist activity at P2Y14R (unknown origin) expressed in HEK293 cells assessed as inhibition of forskolin-stimulated cAMP accumulation incubated in presence of IBMX by cAMP-glo assay; type: functional, cell-based
T1 sequence (Q15391 whole entry): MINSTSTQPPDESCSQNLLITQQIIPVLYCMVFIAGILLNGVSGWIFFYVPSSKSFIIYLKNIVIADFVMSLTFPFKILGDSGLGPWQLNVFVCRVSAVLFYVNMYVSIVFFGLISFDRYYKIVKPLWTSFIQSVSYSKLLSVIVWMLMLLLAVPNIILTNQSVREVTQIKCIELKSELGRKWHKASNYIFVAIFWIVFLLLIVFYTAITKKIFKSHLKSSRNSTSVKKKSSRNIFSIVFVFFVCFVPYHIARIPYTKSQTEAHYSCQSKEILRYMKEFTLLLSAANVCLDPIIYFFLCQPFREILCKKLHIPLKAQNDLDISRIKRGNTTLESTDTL

[1] = target: T2, P2Y purinoceptor 14 (Homo sapiens) (UniProt Q15391)
T2 sequence (whole entry): T1 sequence (Q15391 whole entry)

[2] = HEK293, filed as antagonist, dose 100.0 nM

Structure (SMILES) | IC50 (P2Y purinoceptor 14) [nM] | inhibition [1, 2] [%] | inhibition ([1]; HEK293, dose 100.0 nM) [%]
CC(=O)c1ccc(C(=O)Nc2cc(C(=O)O)nn2Cc2ccc(F)cc2)cc1 | 3.81 | 98.2 | –
CCc1ccc(C(=O)Nc2cc(C(=O)O)nn2Cc2ccc(F)cc2)cc1 | 4.65 | 97.9 | –
Cc1ccccc1C(=O)Nc1cc(C(=O)O)nn1Cc1ccc(F)cc1 | – | – | 28.5
Cc1ccc(C(=O)Nc2cc(C(=O)O)nn2Cc2ccccc2C(F)(F)F)cc1 | 4.83 | 93 | –
O=C(Nc1cc(C(=O)O)nn1Cc1ccc(F)cc1)c1ccc(C(F)(F)F)cc1 | – | – | 31.4
O=C(Nc1cc(C(=O)O)nn1Cc1ccc(F)cc1)c1cccc(F)c1 | – | – | 25.2
Cc1ccc(C(=O)Nc2cc(C(=O)O)nn2Cc2cc(F)cc(F)c2)cc1 | 41 | 79.8 | –
Cc1ccc(C(=O)Nc2cc(CC(=O)O)nn2Cc2ccc(F)cc2)cc1 | 14.3 | 98.3 | –
CC(C)(C)c1ccc(C(=O)Nc2cc(C(=O)O)nn2Cc2ccc(F)cc2)cc1 | – | – | 3.05
O=C(O)c1cc(NC(=O)c2ccccc2F)n(Cc2ccc(F)cc2)n1 | – | – | 20.1
O=C(O)c1cc(NC(=O)c2ccco2)n(Cc2ccc(F)cc2)n1 | – | 76 | –
Cc1ccc(C(=O)Nc2cc(C(=O)O)nn2Cc2cc(F)c(F)c(F)c2)cc1 | 4.01 | 90.3 | –
Cc1ccc(C(=O)Nc2cc(C(=O)O)nn2Cc2ccc(F)cc2)o1 | – | 43.6 | –
Cc1ccc(CC(=O)Nc2cc(C(=O)O)nn2Cc2ccc(F)cc2)cc1 | – | – | 28.5
Cc1ccc(CCC(=O)Nc2cc(C(=O)O)nn2Cc2ccc(F)cc2)cc1 | – | – | 14.4
Cc1ccc(C(=O)Nc2cc(C(=O)O)nn2Cc2ccccc2F)cc1 | 111 | 58.5 | –

Reference: ChEMBL document CHEMBL5150046, “Discovery of a Series of 5-Amide-1H-pyrazole-3-carboxyl Derivatives as Potent P2Y14R Antagonists with Anti-Inflammatory Characters” (J Med Chem, 2022)
